Source: patent EP1290011B1 (Oncopeptides AB, priority 2000, dated 2001)
Where a name gives a salt, the structure may show the parent alone.

What was measured:
[1] = system: sarcoma 45; settings: rat, in vivo; cited from earlier work
[2] = system: Solid tumours (PHTC); assay: FMCA in PHTC cultures, Table 4, solid; settings: 4 µM; n=12-20; 4320 min
[3] = system: Hematological tumours (PHTC); assay: FMCA in PHTC cultures, Table 4, hematological; settings: 4 µM; n=7-11; 4320 min
[4] = system: Breast cancer; assay: Cytotoxic activity in different tumour models; format: cell-based, human; settings: Number 4
[5] = system: U937vcr; assay: cells; format: cell-based, human; settings: U937vcr, vincristine resistance; 72 hours incubation; read-out: IC50
[6] = system: RPMI 8322 melanoma cells; settings: compared with the other peptides of PTC; cited from earlier work
[7] = system: 8226Dox40; assay: cells; format: cell-based, human; settings: 8226Dox40, doxorubicin resistance; 72 hours incubation; read-out: IC50
[8] = system: 8226S; assay: cells; format: cell-based, human; settings: 8226S, myeloma; 72 hours incubation; read-out: IC50
[9] = system: PHTC samples from 9 patients with hematological and 18 patients with solid tumours; assay: Circumvention of melphalan resistance: FMCA classification of PHTC samples as LDR, IDR, EDR; format: cell-based, human; settings: tested at 4 µM
[10] = system: Adeno-carcinoma; assay: Cytotoxic activity in different tumour models; format: cell-based, human; settings: Number 5
[11] = system: CEM/S; assay: cells; format: cell-based, human; settings: CEM/S; 72 hours incubation; read-out: IC50
[12] = system: H69; assay: cells; format: cell-based, human; settings: H69, small cell lung cancer; 72 hours incubation; read-out: IC50
[13] = system: Corpus cancer; assay: Cytotoxic activity in different tumour models; format: cell-based, human; settings: Number 4
[14] = system: fresh human tumour specimens; assay: FMCA cytotoxic activity in 27 fresh human tumour specimens (Figure 2); format: cell-based; settings: 27 human tumour samples, 14 hematological and 13 solid, comparative statement
[15] = system: solid tumour fresh human tumour specimens (PHTC); settings: 0.66 µM; n=22; 4320 min
[16] = system: H69AR; assay: cells; format: cell-based, human; settings: H69AR, doxorubicin resistance; 72 hours incubation; read-out: IC50
[17] = system: U937gtb; assay: cells; format: cell-based, human; settings: U937gtb, lymphoma; 72 hours incubation; read-out: IC50
[18] = system: NSC Lung cancer; assay: Cytotoxic activity in different tumour models; format: cell-based, human; settings: Number 8
[19] = system: Prostate cancer; assay: Cytotoxic activity in different tumour models; format: cell-based, human; settings: Number 1
[20] = system: ACHN; assay: cells; format: cell-based, human; settings: ACHN, primary resistant renal carcinoma; 72 hours incubation; read-out: IC50
[21] = system: primary cultures of human tumor cells from patients (PHTC), Total; assay: FMCA in PHTC cultures, Table 4, total; settings: 4 µM; n=19-31; 4320 min
[22] = system: hematological fresh human tumour specimens (PHTC); settings: 0.66 µM; n=42; 4320 min
[23] = system: panel of ten human tumour cell lines; assay: cells; format: cell-based; settings: mean over the ten cell lines; read-out: MEAN IC50
[24] = system: 8226LR5; assay: cells; format: cell-based, human; settings: 8226LR5, melphalan resistance; 72 hours incubation; read-out: IC50
[25] = system: CEM/R; assay: cells; format: cell-based, human; settings: CEM/R; 72 hours incubation; read-out: IC50
[26] = system: Ovarian carcinoma; assay: Cytotoxic activity in different tumour models; format: cell-based, human; settings: Number 8
[27] = system: oxidative phosphorylation in mitochondria from rat liver homogenates and Jensen sarcoma cells; settings: cited from earlier work

For `CCOC(=O)[C@H](Cc1ccc(O)cc1)NC(=O)[C@H](Cc1ccc(N(CCCl)CCCl)cc1)NC(C)=O` [astyron, N-acetyl-L-melphalanyl-L-tyrosine ethyl ester], the “sarcoma 45 growth” value [1] is listed as “inhibited sarcoma 45 growth”.

In the case of `CCOC(=O)[C@H](Cc1ccc(F)cc1)NC(=O)[C@H](Cc1cccc(N(CCCl)CCCl)c1)NC(=O)[C@@H]1CCCN1` [Example P2, L-prolyl-m-L-sarcolysyl-p-L-fluorophenylalanine ethyl ester hydrochloride, reference compound], the “Tumour cell survival index (%) Solid tumours” value [2] is reported as 68.9%, the “Tumour cell survival index (%) Hematological tumours” value [3] is reported as 7% and the “Median response at 4.0 µM >50% reduction in tumour cell survival” value (“Median response at 4.0 µM >50% reduction” for short) [4] is reported as “No”. The IC50 [5] was 1.79 µM, the cytotoxicity [6] was “more toxic to RPMI 8322 melanoma cells than any of the other peptides” and the IC50 [7] was 5.43 µM. The IC50 [8] was 5.11 µM, the “Number of samples EDR” value ([9]; Extreme drug resistance) was 1 and the “Number of samples (%) EDR” value ([9]; Extreme drug resistance, percent of samples) was 5%. For the same molecule, the “Number of samples IDR” value ([9]; Intermediate drug resistance) was 4, the “Number of samples (%) IDR” value ([9]; Intermediate drug resistance, percent of samples) was 21% and the “Number of samples LDR” value ([9]; Low drug resistance) was 14. The “Number of samples (%) LDR” value ([9]; Low drug resistance, percent of samples) was 74%, the “Median response at 4.0 µM >50% reduction” value [10] was “No” and the IC50 [11] was 0.94 µM. For the same molecule, the IC50 [12] was 4.59 µM, the “Median response at 4.0 µM >50% reduction” value [13] was “No” and the “IC50s (comparison)” value [14] was “more active than melphalan”. For the same molecule, the “Tumour cell survival index % Solid” value [15] was 86.0%, the IC50 [16] was 4.27 µM and the IC50 [17] was 1.78 µM. The “Median response at 4.0 µM >50% reduction” value [18] was “No”, the “Median response at 4.0 µM >50% reduction” value [19] was “No” and the IC50 [20] was 4.59 µM. For the same molecule, the “Tumour cell survival index (%) Total” value [21] was 46.1%, the “Tumour cell survival index % Hematological” value [22] was 34.7% and the IC50 [23] was 3.35 µM. The IC50 [24] was 7.4 µM, the IC50 [25] was 0.63 µM and the “Median response at 4.0 µM >50% reduction” value [26] was “No”.

For `CC(C)[C@H](NC(=O)[C@@H](N)Cc1ccc(N(CCCl)CCCl)cc1)C(=O)O` [L-melphalanyl-L-valine], the oxidative phosphorylation [27] is given as “disrupted oxidative phosphorylation”.
